Test results reported in PubChem BioAssay (NCI).
Several values for one entry are separate records, joined by “and”; a condition that tells them apart may be missing. Equal values may be shown once.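 Interpolation was linear, between the two tested concentrations surrounding the appropriate level; five concentrations were tested over 48 hours in 96-well plates. GI50 marks 50% less growth. TGI marks complete inhibition of growth.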

Test system: NCI/ADR-RES ovarian
Test: growth of human tumour cells (NCI), 48 h

Row | Compound | GI50 [µM] | TGI
1 | COc1ccccc1Cn1cc2c(c1-c1ccccc1)CCc1cnoc1-2 | 0.848 | 4.47 µM
2 | COc1cc2c(c(OC)c1OC)C(=O)[C@@H]1c3ccc([N+](=O)[O-])cc3C(=O)N(CCCBr)[C@H]21 | 11 | 44.9 µM
3 | Nc1ncn(C2CC(O)C(CO)O2)c(=O)n1 (centres undefined) | – | > 375 µM
4 | C/C=C(\C)CC/C=C/CO[Si](C)(C)C(C)(C)C | – | > 100 µM
5 | COc1cc2c3c(n(C)c(=O)c2cc1OC)-c1cc2c(cc1/C3=C\CNCCCN)OCO2 | 5.26 | > 88.5 µM
6 | O=C(/C=C\n1cnc(-c2cc(C(F)(F)F)cc(C(F)(F)F)c2)n1)NNc1cnccn1 | 0.0933 | 27.1 µM
7 | NCCCn1c2c(c3ccc([N+](=O)[O-])cc3c1=O)C(=O)c1cc(Br)ccc1-2 | 0.0352 | 0.203 µM and 0.206 µM
8 | CN1C(=O)c2ccccc2NC(=O)C12O[C@@H]2c1cccc(O)c1 (some centres undefined) | – | > 100 µM

Test system: T-47D breast
Test: growth of human tumour cells (NCI), 48 h

Row | Compound | TGI [µM] | GI50
9 | Cn1cnc([N+](=O)[O-])c1[Se]c1nc(N)nc2c1ncn2C1OC(CO)C(O)C1O (centres undefined) | > 100 | –
10 | C=C(C)C1CCC2(C(=O)O)CCC3(C)C(CCC4C5(C)CCC(OC(=O)NCc6ccccc6)C(C)(C)C5CCC43C)C12 (centres undefined) | > 100 | 3.19 µM
11 | Clc1ccc(-c2c(C3=NCCCN3)nnn2-c2ccc(Cl)cc2)cc1 | > 59.8 | –
12 | C=C[C@H]1C[C@@H]2C[C@@H]3[C@H]4C/C=C\C(=O)NCCCC5NC(=O)C(=C(O)/C=C/[C@@H]4CC(=O)[C@H]3[C@@H]2[C@H]1C)C5=O (some centres undefined) | 3.52 | 1.65 µM
13 | Cc1ccc(C(=O)Nc2ccc(CN3CCN(C)CC3)c(C(F)(F)F)c2)cc1C#Cc1cnc(N)c2ccccc12 | 2.3 | 0.861 µM
14 | C=C1CC[C@@H]2[C@](C)(COC(C)=O)[C@H](OC(C)=O)CC[C@@]2(C)[C@@H]1CC(Nc1ccc(S(=O)(=O)Nc2ncccn2)cc1)C1=CCOC1=O (some centres undefined) | 5.46 | 2 µM
15 | Cn1c2ccccc2c2c3[nH]c(=O)[nH]c(=O)c3c3c4ccccc4n(C)c3c21 | 27.1 | 2.05 µM
16 | O=C1/C(=C/c2ccc(O)cc2)CSc2ccc(Cl)cc21 | 22.7 | 8.86 µM
17 | Fc1ccc(-c2nn3ncccc3c2-c2ccnc(Nc3ccc4c(c3)OCCO4)n2)cc1 | 17.9 | 3.95 µM
18 | CC1(C)N=C(N)N=C(N)N1c1ccc(OCc2ccc(S(=O)(=O)F)c(Cl)c2)c(Cl)c1 | > 100 | 77.7 µM
19 | CO[C@H]1C=C[C@@]23c4cc5c(cc4CO[C@]2(O)CN(C)[C@H]3C1)OCO5 | > 100 | –
20 | COC(=O)c1c(C)[nH]c(/C=C2\N=C(c3ccc[nH]3)C=C2OC)c1C | 3.99 | 0.816 µM
21 | COc1cc2c3c(n(CCCCOC(=O)C(Cl)(Cl)Cl)c(=O)c2cc1OC)-c1cc2c(cc1C3=O)OCO2 | > 100 | > 100 µM
22 | CCOC(=O)c1c(C)nc2c(c1N)/C(=C/c1ccc(OC)cc1)C(=O)N2Cc1ccc(F)cc1 | 1.91 | 0.148 µM
23 | C/C(=N\Nc1ccc(Cl)cn1)c1ccccn1 | > 38.8 | 0.0372 µM
24 | COc1cc(NS(=O)(=O)c2ccc(-c3cnc(C4CC4)o3)cc2)ccc1F | 38.9 | 0.436 µM
25 | CC(C)CCCC(=O)CCCCCCC(=O)CCN(O)C(=O)C(N)CO (centres undefined) | 34.8 | –
26 | Cc1ccc(NC(=O)NCCCOc2ccc(N3C(N)=NC(N)=NC3(C)C)cc2Cl)cc1S(=O)(=O)F | > 100 | 19.8 µM
27 | CC[CH2][Sn]([Cl])([Cl])[CH2]CC.Oc1ccccc1C=NCCN=Cc1ccccc1O | 2.6 | 1.09 µM
28 | COc1ccccc1Cn1cc2c(c1-c1ccccc1)CCc1cnoc1-2 | > 100 | 4.49 µM
29 | COc1cc2c(c(OC)c1OC)C(=O)[C@@H]1c3ccc([N+](=O)[O-])cc3C(=O)N(CCCBr)[C@H]21 | > 100 | 7.88 µM
30 | Nc1ncn(C2CC(O)C(CO)O2)c(=O)n1 (centres undefined) | > 299 | –
31 | C/C=C(\C)CC/C=C/CO[Si](C)(C)C(C)(C)C | > 100 | –
32 | COc1cc2c3c(n(C)c(=O)c2cc1OC)-c1cc2c(cc1/C3=C\CNCCCN)OCO2 | 3.02 | –
33 | O=C(/C=C\n1cnc(-c2cc(C(F)(F)F)cc(C(F)(F)F)c2)n1)NNc1cnccn1 | 15.7 | 0.143 µM
34 | NCCCn1c2c(c3ccc([N+](=O)[O-])cc3c1=O)C(=O)c1cc(Br)ccc1-2 | 1.49 | 0.346 µM and 0.169 µM
35 | CN1C(=O)c2ccccc2NC(=O)C12O[C@@H]2c1cccc(O)c1 (some centres undefined) | > 100 | –
